Assay results as given in US20230234938A1 (RHIZEN PHARMACEUTICALS AG, priority 2020, published 2023).
Read-outs that look alike come from different tables or passages of the source.

Columns and labels:
[1] = molecular target: PARP1 (Homo sapiens, UniProt P09874); experiment: PARP enzyme assay (PARP1, chemiluminescent histone ribosylation); settings: for % inhibition 10 nM / % inhibition 100 nM: PARP enzyme assay; for % inhibition 10 nM: 10 nM compound, 0.01 µM; for % inhibition 100 nM: 100 nM compound, 0.1 µM
Procedure: 1) Coat 25 µL of histone solution onto a 384-well plate as described below: • Dilute 5x histone mixture 1:5 with PBS. • Add 25 µL of diluted histone solution to each well and incubate at 4° C. overnight. • Wash the plate three times using 100 µL PBST buffer (1x PBS containing 0.05% Tween20) per well. • Tap plate onto clean paper towel to remove liquid. • Block the wells by adding 100 µL of Blocking buffer 3 to every well. Incubate at room temperature for 1 h 15 minutes. • Wash plate three times with 100 µL PBST buffer as described above. • Tap plate onto clean paper towel to remove liquid.
1) Preparation of 1X PARP Buffer: • Prepare 1x PARP buffer by adding 1 part of 10x PARP buffer to 9 parts distilled water (v/v). To prepare 500 µL of 1X PARP buffer, add 50 µL 10X PARP Assay buffer to 450 µL of H2O and mix well.
2) Preparation of the Ribosylation master mixture: • N wells x (1.25 µL 10x PARP buffer + 1.25 µL 10X PARP Assay mixture + 2.5 µL Activated DNA + 7.5 µL distilled water). Add 12.5 µL to every well.
3) Preparation of the inhibitor solution: • 10 mM stock solution of the inhibitor was prepared in DMSO. From 10 mM stock solution, 250X concentrations of the inhibitor were made in DMSO. • 250X DMSO concentrations of the inhibitor were further diluted to 10X concentrations in 1X kinase buffer. • 2.5 µL (10X concentrations) of kinase buffer containing inhibitor was added to each well. • For the “Positive Control” and “Blank”, add 2.5 µL of kinase buffer containing DMSO (4%) was added. • The final DMSO concentration in the well was 0.4 %.
4) Preparation of the enzyme solution: • Thaw PARP1 enzyme on ice. Upon first thaw, briefly spin tube containing enzyme to recover full content of the tube. Calculate the amount of PARP1 required for the assay and dilute enzyme to 2.0 ng/µL with 1x PARP buffer. • Initiate reaction by adding 10 µL of diluted PARP1 enzyme to the wells designated “Positive Control” and “Test Inhibitor”. • To the wells designated as “Blank”, add 10 µL of 1X PARP buffer. • Centrifuge the plate at 1000 rpm for 30 seconds and incubate at room temperature for 60 min. • Discard the reaction mixture after 1 hour, and wash plate three times with 100 µL PBST buffer and tap plate onto clean paper towel as described above.
1) Preparation of Streptavidin-HRP: • Dilute Streptavidin-HRP 1:50 in Blocking buffer. • Add 25 µL of diluted Streptavidin-HRP to each well. Incubate for 30 min. at room temperature. • Wash three times with 100 µL PBST buffer and tap plate onto clean paper towel as above as described above.
2) Preparation of ECL substrate: • Just before use, mix on ice equal amounts of ELISA ECL Substrate A and ELISA ECL Substrate B and add 50 µL per well. • Immediately read the plate in microtiter-plate in Chemiluminescence setting. The “Blank” value is subtracted from all other values.

[2] = system: PAR in UWB 1.289 cells; experiment: PAR inhibition in UWB 1.289 cells (western blot); assay type: cell-based, human
Procedure: Example-3 UWB 1.289 cells were plated at a predetermined density in a 6-well plate in its respective media and plates were incubated at 37° C. and 5% CO2 overnight. After overnight incubation, the plates were treated with desired concentrations of the compound or DMSO and the plates were incubated at 37° C. and 5% CO2 as required for 24 hours. After completion of 24 hours incubation, total cell lysates were prepared from the treated samples. Lysates were analysed by western-blot analysis and probed with Human PAR specific monoclonal antibody or human specific beta-actin monoclonal antibody (loading control). Western-blot images were developed after exposing them to chemiluminescent substrate and images were captured on imaging system. Target specific bands and loading specific bands were measured using densitometric analysis. Densitometric values of target specific bands were normalized to loading control values. % inhibition of PAR was calculated relative to DMSO treated samples. Results: % inhibitions values are given below in Table-2: […]

[3] = molecular target: PARP2 (Homo sapiens, UniProt Q9UGN5); experiment: PARP enzyme assay (PARP2); assay type: biochemical
From the text: Step 2: Ribosylation Reaction

Chain of PARP1 (P09874 whole entry, species assumed): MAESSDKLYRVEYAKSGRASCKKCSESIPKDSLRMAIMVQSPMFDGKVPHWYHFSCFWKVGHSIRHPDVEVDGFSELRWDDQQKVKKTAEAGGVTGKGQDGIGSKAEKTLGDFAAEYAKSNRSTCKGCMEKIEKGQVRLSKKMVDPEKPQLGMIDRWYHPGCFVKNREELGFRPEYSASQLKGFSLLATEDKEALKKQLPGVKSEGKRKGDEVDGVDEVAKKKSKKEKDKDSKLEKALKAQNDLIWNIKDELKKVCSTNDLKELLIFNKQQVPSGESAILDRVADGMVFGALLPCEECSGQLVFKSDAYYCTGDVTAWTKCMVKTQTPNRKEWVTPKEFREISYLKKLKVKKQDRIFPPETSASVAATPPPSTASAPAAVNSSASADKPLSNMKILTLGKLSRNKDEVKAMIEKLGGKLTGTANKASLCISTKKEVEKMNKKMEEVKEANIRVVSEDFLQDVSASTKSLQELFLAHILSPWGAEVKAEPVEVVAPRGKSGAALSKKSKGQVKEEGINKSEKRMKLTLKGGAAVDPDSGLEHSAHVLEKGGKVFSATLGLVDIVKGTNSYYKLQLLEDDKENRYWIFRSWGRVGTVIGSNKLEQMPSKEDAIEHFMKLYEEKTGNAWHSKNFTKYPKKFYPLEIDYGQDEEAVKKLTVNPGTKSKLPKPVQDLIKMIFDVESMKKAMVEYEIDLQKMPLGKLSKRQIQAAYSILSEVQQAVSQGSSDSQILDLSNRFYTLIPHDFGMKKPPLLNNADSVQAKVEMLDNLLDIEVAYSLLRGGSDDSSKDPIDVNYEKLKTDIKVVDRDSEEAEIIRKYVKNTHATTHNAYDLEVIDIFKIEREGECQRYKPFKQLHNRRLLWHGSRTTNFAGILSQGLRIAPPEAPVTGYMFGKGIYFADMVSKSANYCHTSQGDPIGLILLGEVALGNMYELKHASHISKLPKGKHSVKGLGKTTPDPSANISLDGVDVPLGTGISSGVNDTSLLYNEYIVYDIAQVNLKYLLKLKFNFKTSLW
Chain of PARP2 (Q9UGN5 whole entry, species assumed): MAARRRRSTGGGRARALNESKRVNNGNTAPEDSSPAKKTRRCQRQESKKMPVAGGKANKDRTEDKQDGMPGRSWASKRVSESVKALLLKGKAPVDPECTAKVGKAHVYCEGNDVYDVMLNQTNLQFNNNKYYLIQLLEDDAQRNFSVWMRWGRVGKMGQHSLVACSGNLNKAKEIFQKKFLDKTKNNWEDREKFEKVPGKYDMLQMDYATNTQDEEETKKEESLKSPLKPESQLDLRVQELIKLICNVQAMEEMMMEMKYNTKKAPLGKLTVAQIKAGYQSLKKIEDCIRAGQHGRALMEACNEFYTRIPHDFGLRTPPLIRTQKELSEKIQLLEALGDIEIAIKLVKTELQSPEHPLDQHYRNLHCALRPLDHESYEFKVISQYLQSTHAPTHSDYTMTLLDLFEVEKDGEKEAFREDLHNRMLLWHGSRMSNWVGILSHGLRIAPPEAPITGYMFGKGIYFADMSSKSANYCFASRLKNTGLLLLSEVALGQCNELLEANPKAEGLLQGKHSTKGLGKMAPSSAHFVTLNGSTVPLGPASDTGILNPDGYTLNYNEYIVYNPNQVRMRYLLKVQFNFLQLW

| Structure (SMILES) | melting point | inhibition at 0.01 µM ([1]; read-out: % inhibition 10 nM) | inhibition at 0.1 µM ([1]; read-out: % inhibition 100 nM) | other results |
| --- | --- | --- | --- | --- |
| O=C1N(c2cncc(Cc3n[nH]c(=O)c4ccccc34)c2)c2ccccc2C1(O)C(F)(F)F (single isomer, unassigned; (-)) [Example 27, (-)-4-((5-(3-Hydroxy-2-oxo-3-(trifluoromethyl)indolin-1-yl)pyridin-3-yl)methyl)phthalazin-1(2H)-one] | 210 to 214 °C | – | – | % inhibition 10 nM [1]: C (C represents >25% to ≤50%); % inhibition 100 nM [1]: C (C represents >25% to ≤50%) |
| CC1(O)C(=O)N(c2cc(Cc3n[nH]c(=O)c4cc(F)ccc34)ccn2)c2ccccc21 (single isomer, unassigned; (+)) [Example 23, (+)-7-Fluoro-4-((2-(3-hydroxy-3-methyl-2-oxoindolin-1-yl)pyridin-4-yl)methyl)phthalazin-1(2H)-one] | 167 to 170 °C | – | – | PAR % inhibition in UWB 1.289 @ 10 nM ([2]; UWB 1.289 cells, 10 nM, 24 hours, western blot relative to DMSO, 0.01 µM): D (D represents ≤25%); IC50 [3]: < 10 nM |
| C[C@]1(O)C(=O)N(c2cncc(Cc3n[nH]c(=O)c4ccccc34)c2)c2ccccc21 [Example 2, (R)-(+)-4-((5-(3-Hydroxy-3-methyl-2-oxoindolin-1-yl)pyridin-3-yl)methyl)phthalazin-1(2H)-one] | – | – | – | inhibition at 0.01 µM ([2]; Homo sapiens, UWB1289, 24 h, read-out: PAR % inhibition in UWB 1.289 @ 10 nM, UWB 1.289 cells, 10 nM, 24 hours, western blot relative to DMSO): 75 to 100%; IC50 [1]: < 10 nM; IC50 [3]: < 10 nM |
| CC1(O)C(=O)N(c2cc(Cc3n[nH]c(=O)c4cc(F)ccc34)ccc2F)c2ccccc21 (stereo not drawn) [Example 29, 7-Fluoro-4-(4-fluoro-3-(3-hydroxy-3-methyl-2-oxoindolin-1-yl)benzyl)phthalazin-1(2H)-one] | 207 to 210 °C | 75 to 100% | 75 to 100% | – |
| CC1(O)C(=O)N(c2cncc(Cc3n[nH]c(=O)c4cc(F)ccc34)c2)c2ccc(F)cc21 (stereo not drawn) [Example 10, 7-Fluoro-4-((5-(5-fluoro-3-hydroxy-3-methyl-2-oxoindolin-1-yl)pyridin-3-yl)methyl)phthalazin-1(2H)-one] | 157 to 160 °C | 75 to 100% | 75 to 100% | IC50 [1]: < 10 nM |
| CC1(O)C(=O)N(c2cc(Cc3n[nH]c(=O)c4ccccc34)ccn2)c2ccccc21 (single isomer, unassigned; (-)) [Example 19, (-)-4-((2-(3-Hydroxy-3-methyl-2-oxoindolin-1-yl)pyridin-4-yl)methyl)phthalazin-1(2H)-one] | 207 to 210 °C | – | – | IC50 [1]: < 10 nM; inhibition at 0.01 µM ([1]; read-out: % inhibition 10 nM, PARP enzyme assay, 10 nM compound): 75 to 100%; inhibition at 0.1 µM ([1]; read-out: % inhibition 100 nM, PARP enzyme assay, 100 nM compound): 75 to 100%; IC50 [3]: < 10 nM |
| O=C1Cc2ccccc2N1c1cc(Cc2n[nH]c(=O)c3ccccc23)ccc1F [Example 33, 4-(4-Fluoro-3-(2-oxoindolin-1-yl)benzyl)phthalazin-1(2H)-one] | 232 to 235 °C | 75 to 100% | 75 to 100% | – |
| CC1(O)C(=O)N(c2cc(Cc3n[nH]c(=O)c4ccccc34)ccn2)c2ccccc21 (stereo not drawn) [Example 18, 4-((2-(3-hydroxy-3-methyl-2-oxoindolin-1-yl)pyridin-4-yl)methyl)phthalazin-1(2H)-one] | 203 to 205 °C | 75 to 100% | 75 to 100% | IC50 [1]: < 10 nM; IC50 [3]: < 10 nM |
| CC1(O)C(=O)N(c2cncc(Cc3n[nH]c(=O)c4ccccc34)c2)c2ccc(F)cc21 (stereo not drawn) [Example 13, 4-((5-(5-Fluoro-3-hydroxy-3-methyl-2-oxoindolin-1-yl)pyridin-3-yl)methyl)phthalazin-1(2H)-one] | 116 to 120 °C | 75 to 100% | 75 to 100% | IC50 [1]: < 10 nM; IC50 [3]: < 10 nM |
| CC1(O)C(=O)N(c2cncc(Cc3n[nH]c(=O)c4cc(F)ccc34)c2)c2ccccc21 (stereo not drawn) [Example 6, 7-Fluoro-4-((5-(3-hydroxy-3-methyl-2-oxoindolin-1-yl)pyridin-3-yl)methyl)phthalazin-1(2H)-one] | 133 to 136 °C | – | – | IC50 [3]: < 10 nM |
| O=C1N(c2cncc(Cc3n[nH]c(=O)c4ccccc34)c2)c2ccccc2C1(O)C(F)(F)F (single isomer, unassigned; (+)) [Example 26, (+)-4-((5-(3-Hydroxy-2-oxo-3-(trifluoromethyl)indolin-1-yl)pyridin-3-yl)methyl)phthalazin-1(2H)-one] | 170 to 174 °C | – | – | % inhibition 10 nM [1]: A (A represents >75% to 100%); % inhibition 100 nM [1]: A (A represents >75% to 100%) |

Further lines, with some results ahead:

| melting point | inhibition at 0.01 µM ([1]; read-out: % inhibition 10 nM) | inhibition at 0.1 µM ([1]; read-out: % inhibition 100 nM) | Structure (SMILES) | other results |
| --- | --- | --- | --- | --- |
| 132 to 135 °C | 75 to 100% | 75 to 100% | CC1(O)C(=O)N(c2cncc(Cc3n[nH]c(=O)c4ccc(F)cc34)c2)c2ccccc21 (stereo not drawn) [Example 9, 6-Fluoro-4-((5-(3-hydroxy-3-methyl-2-oxoindolin-1-yl)pyridin-3-yl)methyl)phthalazin-1(2H)-one] | – |
| 133 to 136 °C | 25 to 50% | 75 to 100% | CC1(O)C(=O)N(c2cccc(Cc3n[nH]c(=O)c4ccccc34)c2)c2cnccc21 (stereo not drawn) [Example 31, 4-(3-(3-Hydroxy-3-methyl-2-oxo-2,3-dihydro-1H-pyrrolo[2,3-c]pyridin-1-yl)benzyl)phthalazin-1(2H)-one] | – |
| 114 to 117 °C | 25 to 50% | 75 to 100% | CC1(C)C(=O)N(c2cc(Cc3n[nH]c(=O)c4ccccc34)ccc2F)c2cccnc21 [Example 37, 4-(3-(3,3-Dimethyl-2-oxo-2,3-dihydro-1H-pyrrolo[3,2-b]pyridin-1-yl)-4-fluorobenzyl)phthalazin-1(2H)-one] | – |
| 219 to 222 °C | 75 to 100% | 75 to 100% | O=C1N(c2cncc(Cc3n[nH]c(=O)c4ccccc34)c2)c2ccccc2C12CC2 [Example 38, 1′-(5-((4-Oxo-3,4-dihydrophthalazin-1-yl)methyl)pyridin-3-yl)spiro[cyclopropane-1,3′-indolin]-2′-one] | – |
| 117 to 120 °C | 75 to 100% | 75 to 100% | CCC1(O)C(=O)N(c2cncc(Cc3n[nH]c(=O)c4ccccc34)c2)c2ccccc21 (stereo not drawn) [Example 5, 4-((5-(3-Ethyl-3-hydroxy-2-oxoindolin-1-yl)pyridin-3-yl)methyl)phthalazin-1(2H)-one] | – |
| 129 to 132 °C | 75 to 100% | 75 to 100% | CC1(C)C(=O)N(c2cc(Cc3n[nH]c(=O)c4ccccc34)ccc2F)c2ccccc21 [Example 34, 4-(3-(3,3-Dimethyl-2-oxoindolin-1-yl)-4-fluorobenzyl)phthalazine-1(2H)-one] | – |
| 242 to 245 °C | 25 to 50% | 75 to 100% | CC1(C)C(=O)N(c2cncc(Cc3n[nH]c(=O)c4ccccc34)c2)c2cccnc21 [Example 36, 4-((5-(3,3-Dimethyl-2-oxo-2,3-dihydro-1H-pyrrolo[3,2-b]pyridin-1-yl)pyridin-3-yl)methyl)phthalazin-1(2H)-one] | – |
| 125 to 128 °C | 75 to 100% | 75 to 100% | CC1(O)C(=O)N(c2cncc(Cc3n[nH]c(=O)c4ccccc34)c2)c2cc(F)ccc21 (stereo not drawn) [Example 16] | – |
| 219 to 221 °C | 75 to 100% | 75 to 100% | CC1(O)C(=O)N(c2cncc(Cc3n[nH]c(=O)c4cc(F)ccc34)c2)c2cc(F)ccc21 (stereo not drawn) [Example 17, 7-Fluoro-4-((5-(6-fluoro-3-hydroxy-3-methyl-2-oxoindolin-1-yl)pyridin-3-yl)methyl)phthalazin-1(2H)-one] | – |
| 237 to 239 °C | 75 to 100% | 75 to 100% | CC(=O)OC1(C)C(=O)N(c2cncc(Cc3n[nH]c(=O)c4ccccc34)c2)c2ccccc21 (stereo not drawn) [Example 32, 3-Methyl-2-oxo-1-(5-((4-oxo-3,4-dihydrophthalazin-1-yl)methyl)pyridin-3-yl)indolin-3-yl acetate] | – |
| 240 to 243 °C | 75 to 100% | 75 to 100% | CC1(O)C(=O)N(c2cccc(Cc3n[nH]c(=O)c4ccccc34)c2)c2ccccc21 (stereo not drawn) [Example 28, 4-(3-(3-Hydroxy-3-methyl-2-oxoindolin-1-yl)benzyl)phthalazin-1(2H)-one] | – |
| 131 to 134 °C | 75 to 100% | 75 to 100% | CC1(O)C(=O)N(c2cc(Cc3n[nH]c(=O)c4ccccc34)ccc2F)c2ccccc21 (stereo not drawn) [Example 4, 4-(4-Fluoro-3-(3-hydroxy-3-methyl-2-oxoindolin-1-yl)benzyl)phthalazin-1(2H)-one] | – |
| 221 to 224 °C | 75 to 100% | 75 to 100% | CC1(C)C(=O)N(c2cncc(Cc3n[nH]c(=O)c4ccccc34)c2)c2ccccc21 [Example 35, 4-((5-(3,3-Dimethyl-2-oxoindolin-1-yl)pyridin-3-yl)methyl)phthalazin-1(2H)-one] | – |
| 207 to 210 °C | 25 to 50% | 75 to 100% | COC1(C)C(=O)N(c2cncc(Cc3n[nH]c(=O)c4ccccc34)c2)c2ccccc21 (stereo not drawn) [Example 30, 4-((5-(3-methoxy-3-methyl-2-oxoindolin-1-yl)pyridin-3-yl)methyl)phthalazin-1(2H)-one] | – |
